Results from ChEMBL document CHEMBL5096210, “Discovery of Betulinic Acid Derivatives as Potent Intestinal Farnesoid X Receptor Antagonists to Ameliorate Nonalcoholic Steatohepatitis” (J Med Chem, 2022).
pEC50, pIC50: −log10 of the molar value. Activity calls are given as the source filed them. The rule behind the calls is not given here.

Assays:
Bile acid receptor = molecular target: T1, Bile acid receptor (Homo sapiens, UniProt Q96RI1); assay: Antagonist activity at FXR (unknown origin) expressed in HEK293T cells cotransfected with pCMV-Script-hFXR/pGL4.11-hSHP-Luciferase incubated for 24 hrs in presence of GW4064 by Steady-glo luciferase assay; type: cell-based
T1 sequence (Q96RI1 whole entry): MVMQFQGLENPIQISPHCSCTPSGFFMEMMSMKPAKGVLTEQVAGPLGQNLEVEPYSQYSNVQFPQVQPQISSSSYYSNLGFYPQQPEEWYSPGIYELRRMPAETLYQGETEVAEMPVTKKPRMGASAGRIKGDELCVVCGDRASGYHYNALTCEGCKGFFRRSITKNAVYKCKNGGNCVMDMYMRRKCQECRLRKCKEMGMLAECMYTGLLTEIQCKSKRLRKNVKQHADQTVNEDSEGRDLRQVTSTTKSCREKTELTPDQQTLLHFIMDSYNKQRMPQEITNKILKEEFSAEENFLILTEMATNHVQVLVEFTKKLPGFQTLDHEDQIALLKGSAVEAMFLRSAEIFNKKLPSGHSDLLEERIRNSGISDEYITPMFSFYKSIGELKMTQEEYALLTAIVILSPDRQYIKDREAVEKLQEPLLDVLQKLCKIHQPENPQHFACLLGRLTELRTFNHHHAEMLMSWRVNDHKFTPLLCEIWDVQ

[1] = molecular target: T2, G-protein coupled bile acid receptor 1 (Homo sapiens, UniProt Q8TDU6); assay: Agonist activity against TGR5 (unknown origin); type: functional
T2 sequence (Q8TDU6 whole entry): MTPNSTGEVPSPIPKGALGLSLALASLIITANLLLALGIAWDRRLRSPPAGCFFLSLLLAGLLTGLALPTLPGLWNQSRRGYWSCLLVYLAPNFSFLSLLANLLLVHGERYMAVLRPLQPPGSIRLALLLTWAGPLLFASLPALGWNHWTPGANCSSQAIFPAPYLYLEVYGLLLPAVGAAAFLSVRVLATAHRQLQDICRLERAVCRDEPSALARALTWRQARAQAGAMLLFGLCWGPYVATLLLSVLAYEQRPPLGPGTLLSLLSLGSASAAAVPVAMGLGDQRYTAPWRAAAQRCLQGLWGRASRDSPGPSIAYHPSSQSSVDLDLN

[2] = Cytotoxicity against HEK293T cells cotransfected with pCMV-Script-hFXR/pGL4.11-hSHP-Luciferase incubated for 24 hrs in presence of GW4064 by celltiter-blue cell viability assay; type: toxicity, cell-based, HEK-293T; conditions: human
[3] = molecular target: T3, Bile acid receptor (Homo sapiens) (UniProt Q96RI1); assay: Agonist activity against FXR (unknown origin) at upto 100 uM; conditions: filed as agonist
T3 sequence (whole entry): T1 sequence (Q96RI1 whole entry)

With `CC(C)[C@@H]1CC[C@]2(C(=O)NCC(=O)O)CC[C@]3(C)[C@H](CC[C@@H]4[C@@]5(C)CC[C@@H](O)C(C)(C)[C@@H]5CC[C@]43C)[C@@H]12` the pIC50 (Bile acid receptor) was 4.13, the pEC50 [1] was under 4.00 and the IC50 at 24 h [2] was over 100 µM. For the same molecule, the Activity [3] was “Active”.
